Biological target: T1, ASCT2 (alanine serine cysteine transporter 2) (Rattus norvegicus, UniProt D3ZJ25)
T1 sequence (D3ZJ25 1-555): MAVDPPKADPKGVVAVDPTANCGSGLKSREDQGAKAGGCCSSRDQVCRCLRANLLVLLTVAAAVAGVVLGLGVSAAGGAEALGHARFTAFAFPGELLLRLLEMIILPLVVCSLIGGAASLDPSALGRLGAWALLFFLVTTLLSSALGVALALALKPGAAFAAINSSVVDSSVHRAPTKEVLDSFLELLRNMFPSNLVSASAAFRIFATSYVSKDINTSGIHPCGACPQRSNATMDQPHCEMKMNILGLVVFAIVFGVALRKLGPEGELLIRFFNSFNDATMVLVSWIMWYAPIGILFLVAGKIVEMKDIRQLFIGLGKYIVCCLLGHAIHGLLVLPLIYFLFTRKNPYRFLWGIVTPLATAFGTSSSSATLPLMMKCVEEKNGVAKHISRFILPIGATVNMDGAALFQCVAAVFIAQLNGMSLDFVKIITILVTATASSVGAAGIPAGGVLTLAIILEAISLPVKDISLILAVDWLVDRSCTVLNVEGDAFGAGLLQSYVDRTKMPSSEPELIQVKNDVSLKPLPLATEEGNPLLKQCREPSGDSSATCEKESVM
Assay: whole-cell voltage clamp: alanine-induced anion currents
Assay type: cell-based

- Km: 160 ± 50 µM
SMILES: C[C@H](N)C(=O)O [alanine]
